In patent publication US20260001893A1, “SMALL MOLECULE MODULATORS OF STAT6” (Gilead Sciences, Inc., priority 2024, published 2026) one finds Emax and EC50 data, which are given here for 15 compounds.

The term Emax denotes the maximal effect, on the per cent scale that the assay sets. By EC50 is commonly meant the midpoint of the concentration-response curve.

The first assay concerns Eotaxin-3 (CCL26) release in human whole blood stimulated with IL-4. The assay can be described thus: Human whole blood eotaxin-3 assay (IL-4 stimulated eotaxin-3 release). In kind it is cell-based. Particulars: Homo sapiens, 48 h, human whole blood stimulated with recombinant human IL-4, 48 h; given for test compounds with <80% Emax; geometric mean. On the procedure:
Human Whole Blood Eotaxin-3 Assay
This was a human whole blood assay using recombinant human Interleukin 4 to stimulate the blood and measuring the ability of the test compounds to inhibit eotaxin-3 release. The biological activities of the test compounds have been tested in human whole blood stimulated with IL-4 measuring Eotaxin-3 release. The test compounds were added to 384 well clear flat-bottom plate in a 4-fold serial dilution in triplicates using a liquid handler. Human whole blood stabilized in lithium-heparin tubes was added in a volume of 65 μL per well, resulting in a final DMSO concentration of 0.5%. The plate is incubated for 2 h at 37° C. under 5% CO2/95% air. Subsequently, 5 μL of recombinant human IL-4 (R&D Systems, cat #204-ILB) was added to the wells to a final concentration of […]. The plate was incubated for 48 h at 37° C. under 5% CO2/95% air. The plate was spun down for 10 minutes at 500×g and 20 μL supernatant was harvested and transferred to a 384 well v-bottom plate using a liquid handler and stored at −20° C. until further analysis. 10 μL supernatant was used to measure the level of Eotaxin-3 (CCL26) using Human Eotaxin-3 MSD kit from Mesocsale (Cat #K251UEK-4). The assay was performed according to the manufacture instructions.
The data from the human whole blood eotaxin-3 assay is shown below for Examples 1ab3, 1ab6, 1d23, and 1d4 (where the effect in % is plotted against the test concentration in M on a log-scale).
Consider `CNc1ccn(-c2ccnc3c2cc(CN2CC[C@@H](c4ccc(C(=O)N(C)C)cc4)C[C@@H]2C)n3C)c(=O)c1` (single isomer, unassigned) [Example 1d40], for which the Emax was less than 20%.
As for `C[C@H](c1cc2c(-n3ccc(N)c(F)c3=O)ccnc2n1C)N1CC=C(c2ccc(C(=O)N(C)C)cn2)CC1` (single isomer, unassigned) [Example 1m76], the Emax was less than 20%.
The same measure, in the same setting: under `CNc1ccn(-c2ccnc3c2cc([C@H](C)N2CC=C(c4c(C)cc(C(=O)N(C)C)nc4C)CC2)n3C)c(=O)c1` (single isomer, unassigned) [Example 1m99] stands less than 20%; under `Cc1cc(C(=O)N(C)C)cc(F)c1C1CCN([C@H](C)c2cc3c(-n4ccc5c(c4=O)CCN5)ccnc3n2C)CC1` (single isomer, unassigned) [Example 1m120], 40 to 50%.

The assay is the same for the next values; noted with them: Homo sapiens, 48 h, human whole blood stimulated with recombinant human IL-4, 48 h; inhibition of eotaxin-3 release; given for test compounds with >80% Emax; geometric mean.
Regarding `CNc1ccn(-c2ccnc3c2cc(CN2CC[C@@H](c4ccc(C(=O)N(C)C)cc4)C[C@H]2C)n3C)c(=O)c1` (single isomer, unassigned) [Example 1d42], the EC50 was 150 nM.
In the case of `CNc1ccn(-c2ccnc3c2cc(CN2CCC(c4ccc(C(=O)N(C)C)cc4)C[C@@H]2C)n3C)c(=O)c1` (single isomer, unassigned) [Example 1d43], the EC50 amounted to 21.9 nM.
Regarding `C[C@@H](c1cc2c(-n3ccc(N)c(F)c3=O)ccnc2n1C)N1CC=C(c2ccc(C(=O)N(C)C)cn2)CC1` (single isomer, unassigned) [Example 1m77], the EC50 turned out to be 524 nM.
Turning to `CNc1ccn(-c2ccnc3c2cc([C@@H](C)N2CC=C(c4c(C)cc(C(=O)N(C)C)nc4C)CC2)n3C)c(=O)c1` (single isomer, unassigned) [Example 1m100], the EC50 turned out to be 440 nM.
Turning to `CNc1ccn(-c2ccnc3c2cc([C@@H](C)N2CC=C(c4c(C)cc(C(=O)N(C)C)cc4F)CC2)n3C)c(=O)c1` (single isomer, unassigned) [Example 1m105], the 50% effective concentration (EC50) was found to be 80.6 nM.
For `Cc1cc(C(=O)N(C)C)cc(F)c1C1CCN([C@@H](C)c2cc3c(-n4ccc5c(c4=O)CCN5)ccnc3n2C)CC1` (single isomer, unassigned) [Example 1m121], the EC50 was 16.4 nM.
Regarding `CN(C)C(=O)c1cc(F)c(C2=CCN(Cc3cc4c(-n5ccc6c(c5=O)CCN6)ccnc4n3C)CC2)cc1C1CC1` (single isomer, unassigned) [Example 1m134, 2-cyclopropyl-5-fluoro-N,N-dimethyl-4-(1-((1-methyl-4-(4-oxo-1,2,3,4-tetrahydro-5H-pyrrolo[3,2-c]pyridin-5-yl)-1H-pyrrolo[2,3-b]pyridin-2-yl)methyl)-1,2,3,6-tetrahydropyridin-4-yl)benzamide], the concentration giving a half-maximal response (EC50) came to 2900 nM.
Take `CN(C)C(=O)c1cc(F)c(C2=CCN(Cc3cc4c(-n5ccc6c(c5=O)CCN6)ccnc4n3C)CC2)c(C2CC2)c1` (single isomer, unassigned) [Example 1m135, 3-cyclopropyl-5-fluoro-N,N-dimethyl-4-(1-((1-methyl-4-(4-oxo-1,2,3,4-tetrahydro-5H-pyrrolo[3,2-c]pyridin-5-yl)-1H-pyrrolo[2,3-b]pyridin-2-yl)methyl)-1,2,3,6-tetrahydropyridin-4-yl)benzamide]: the EC50 came out at 12.1 nM.
Take `CNc1ccn(-c2ccnc3c2cc([C@@H](C)N2CC[C@@H](c4c(C)cc(C(=O)N(C)C)cc4F)C(F)(F)C2)n3C)c(=O)c1` (single isomer, unassigned) [Example 1m143]: the EC50 stood at 855 nM.
In the case of `CNc1ccn(-c2ccnc3c2cc([C@@H](C)N2CC[C@H](c4c(C)cc(C(=O)N(C)C)cc4F)C(F)(F)C2)n3C)c(=O)c1` (single isomer, unassigned) [Example 1m144], the EC50 amounted to 2170 nM.

Staying with this assay, now noted: human whole blood stimulated with recombinant human IL-4, 48 h; inhibition of eotaxin-3 release; given for test compounds with >80% Emax; geometric mean.
Turning to `CNc1ccn(-c2ccnc3c2cc([C@@H](C)N2CC[C@H](c4c(C)cc(C(=O)N(C)C)cc4F)C(F)(F)C2)n3C)c(=O)c1` (single isomer, unassigned) [Example 1m141], the EC50 was 610 nM.
